IC50 data for 24 compounds are collected here from patent US7875647B2, “Heteroaryl-pyrazole derivatives as cannabinoid CB1 receptor antagonists” (Green Cross Corporation, priority 2006, dated 2011).

The structures appear in SMILES notation.

T1 sequence (P20272 whole entry): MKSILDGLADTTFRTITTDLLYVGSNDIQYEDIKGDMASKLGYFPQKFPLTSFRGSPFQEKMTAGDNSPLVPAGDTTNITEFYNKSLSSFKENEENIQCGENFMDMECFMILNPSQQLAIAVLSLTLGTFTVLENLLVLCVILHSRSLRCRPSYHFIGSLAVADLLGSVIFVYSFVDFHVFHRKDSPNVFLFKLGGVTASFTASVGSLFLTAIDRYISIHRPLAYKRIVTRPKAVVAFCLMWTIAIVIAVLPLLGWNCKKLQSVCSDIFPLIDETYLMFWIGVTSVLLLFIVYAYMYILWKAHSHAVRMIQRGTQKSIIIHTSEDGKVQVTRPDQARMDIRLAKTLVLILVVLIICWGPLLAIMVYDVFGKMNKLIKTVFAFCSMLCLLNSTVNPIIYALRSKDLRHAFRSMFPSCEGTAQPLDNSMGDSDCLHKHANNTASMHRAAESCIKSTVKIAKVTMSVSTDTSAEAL

This experiment concerns the target T1, Cannabinoid-1 receptor (CB1R) (Rattus norvegicus, UniProt P20272).
T1 construct: The tissue obtained from the brain of SD rats was homogenized; from tissue; host or cells: brain of SD rats (membrane pellet of the homogenate)
Kind of experiment: Cannabinoid-1 receptor (CB1R) binding affinity assay ([3H]CP-55940, rat CB-1 receptor binding protocol). Particulars: brain tissue of SD rats, [3H]CP-55940, 30° C. 60 min; read-out: IC50.
One may read the IC50 as the concentration at which inhibition is half-maximal. For `Cc1c(-c2nnn(Cc3ccsc3)n2)nn(-c2ccc(Cl)cc2Cl)c1-c1ccc(Cl)cc1` [Example 598, 5-(5-(4-Chlorophenyl)-1-(2,4-dichlorophenyl)-4-methyl-1H-pyrazol-3-yl)-2-(thiophen-3-ylmethyl)-2H-tetrazole], the IC50 was determined as 77.6 nM.

For the compound `Cc1c(-c2nnnn2C2CC2)nn(-c2ccc(Cl)cc2Cl)c1-c1ccc(Cl)cc1` [Example 599, 5-(5-(4-Chlorophenyl)-1-(2,4-dichlorophenyl)-4-methyl-1H-pyrazol-3-yl)-1-cyclopropyl-1H-tetrazole], the IC50 came out at 181 nM.

On to `Cc1c(-c2nnnn2C2CCC2)nn(-c2ccc(Cl)cc2Cl)c1-c1ccc(Cl)cc1` [Example 600, 5-(5-(4-Chlorophenyl)-1-(2,4-dichlorophenyl)-4-methyl-1H-pyrazol-3-yl)-1-cyclobutyl-1H-tetrazole], for which the IC50 turned out to be 42.3 nM.

Regarding `CCCCCCn1nnnc1-c1nn(-c2ccc(Cl)cc2Cl)c(-c2ccc(Cl)cc2)c1C` [Example 603, 5-(5-(4-Chlorophenyl)-1-(2,4-dichlorophenyl)-4-methyl-1H-pyrazol-3-yl)-1-hexyl-1H-tetrazole], the IC50 came out at 50.6 nM.

Consider `Cc1c(-c2nnnn2C23CC4CC(CC(C4)C2)C3)nn(-c2ccc(Cl)cc2Cl)c1-c1ccc(Cl)cc1` [Example 605, 1-Adamantyl-5-(5-(4-chlorophenyl)-1-(2,4-dichlorophenyl)-4-methyl-1H-pyrazol-3-yl)-1H-tetrazole], for which the IC50 worked out at 128 nM.

Turning to `Cc1c(-c2nnnn2C2CCCC2)nn(-c2ccc(Cl)cc2Cl)c1-c1ccc(Br)cc1` [Example 606, 5-(5-(4-bromophenyl)-1-(2,4-dichlorophenyl)-4-methyl-1H-pyrazol-3-yl)-1-cyclopentyl-1H-tetrazole], the IC50 was 11.6 nM.

Take `Cc1c(-c2nnnn2C2CCCCCC2)nn(-c2ccc(Cl)cc2Cl)c1-c1ccc(Br)cc1` [Example 608, 5-(5-(4-bromophenyl)-1-(2,4-dichlorophenyl)-4-methyl-1H-pyrazol-3-yl)-1-cycloheptyl-1H-tetrazole]: the IC50 was determined as 16.5 nM.

As to `CCc1c(-c2nnnn2C2CCCC2)nn(-c2ccc(Cl)cc2Cl)c1-c1ccc(Br)cc1` [Example 609, 5-(5-(4-bromophenyl)-1-(2,4-dichlorophenyl)-4-ethyl-1H-pyrazol-3-yl)-1-cyclopentyl-1H-tetrazole], the IC50 amounted to 14.2 nM.

Turning to `CCc1c(-c2nnnn2C2CCCC2)nn(-c2ccc(Cl)cc2Cl)c1-c1ccc(Cl)cc1` [Example 610, 5-(5-(4-chlorophenyl)-1-(2,4-dichlorophenyl)-4-ethyl-1H-pyrazol-3-yl)-1-cyclopentyl-1H-tetrazole], the IC50 came to 22.6 nM.

As for `Cc1c(-c2n[nH]c(C3CCCC3)n2)nn(-c2ccc(Cl)cc2Cl)c1-c1ccc(Cl)cc1` [Example 611, 3-(5-(4-Chlorophenyl)-1-(2,4-dichlorophenyl)-4-methyl-1H-pyrazol-3-yl)-5-cyclopentyl-1H-1,2,4-triazole], the IC50 came out at 699 nM.

For the compound `Cc1c(-c2n[nH]c(C3CCCCC3)n2)nn(-c2ccc(Cl)cc2Cl)c1-c1ccc(Cl)cc1` [Example 612, 3-(5-(4-Chlorophenyl)-1-(2,4-dichlorophenyl)-4-methyl-1H-pyrazol-3-yl)-5-cyclohexyl-1H-1,2,4-triazole], the IC50 came out at 227 nM.

On to `Cc1c(-c2n[nH]c(-c3ccccc3)n2)nn(-c2ccc(Cl)cc2Cl)c1-c1ccc(Cl)cc1` [Example 613, 3-(5-(4-Chlorophenyl)-1-(2,4-dichlorophenyl)-4-methyl-1H-pyrazol-3-yl)-5-phenyl-1H-1,2,4-triazole], for which the IC50 was determined as 476 nM.

Consider `Cc1c(-c2n[nH]c(-c3cccs3)n2)nn(-c2ccc(Cl)cc2Cl)c1-c1ccc(Cl)cc1` [Example 614, 3-(5-(4-Chlorophenyl)-1-(2,4-dichlorophenyl)-4-methyl-1H-pyrazol-3-yl)-5-(thiophen-2-yl)-1H-1,2,4-triazole], for which the half-inhibitory concentration (IC50) is 389 nM.

`Cc1c(-c2n[nH]c(C3CCCCCC3)n2)nn(-c2ccc(Cl)cc2Cl)c1-c1ccc(Cl)cc1` [Example 615, 3-(5-(4-chlorophenyl)-1-(2,4-dichlorophenyl)-4-methyl-1H-pyrazol-3-yl)-5-cycloheptyl-1H-1,2,4-triazole]: the IC50 was 625 nM.

Regarding `Cc1c(-c2n[nH]c(-c3ccco3)n2)nn(-c2ccc(Cl)cc2Cl)c1-c1ccc(Cl)cc1` [Example 616, 3-(5-(4-chlorophenyl)-1-(2,4-dichlorophenyl)-4-methyl-1H-pyrazol-3-yl)-5-(furan-2-yl)-1H-1,2,4-triazole], the IC50 was 534 nM.

Regarding `CCCc1nc(-c2nn(-c3ccc(Cl)cc3Cl)c(-c3ccc(Cl)cc3)c2C)n[nH]1` [Example 617, 3-(5-(4-chlorophenyl)-1-(2,4-dichlorophenyl)-4-methyl-1H-pyrazol-3-yl)-5-propyl-1H-1,2,4-triazole], the IC50 came out at 523 nM.

On to `Cc1c(-c2n[nH]c(C(C)C)n2)nn(-c2ccc(Cl)cc2Cl)c1-c1ccc(Cl)cc1` [Example 618, 3-(5-(4-chlorophenyl)-1-(2,4-dichlorophenyl)-4-methyl-1H-pyrazol-3-yl)-5-isopropyl-1H-1,2,4-triazole], for which the IC50 came out at 142 nM.

Turning to `Cc1c(-c2n[nH]c(C3CC3)n2)nn(-c2ccc(Cl)cc2Cl)c1-c1ccc(Cl)cc1` [Example 619, 3-(5-(4-chlorophenyl)-1-(2,4-dichlorophenyl)-4-methyl-1H-pyrazol-3-yl)-5-cyclopropyl-1H-1,2,4-triazole], the IC50 is 128 nM.

Turning to `Cc1c(-c2n[nH]c(CC3CC3)n2)nn(-c2ccc(Cl)cc2Cl)c1-c1ccc(Cl)cc1` [Example 620, 3-(5-(4-chlorophenyl)-1-(2,4-dichlorophenyl)-4-methyl-1H-pyrazol-3-yl)-5-(cyclopropylmethyl)-1H-1,2,4-triazole], the IC50 stood at 720 nM.

For the compound `Cc1c(-c2n[nH]c(C3CCC3)n2)nn(-c2ccc(Cl)cc2Cl)c1-c1ccc(Cl)cc1` [Example 621, 3-(5-(4-chlorophenyl)-1-(2,4-dichlorophenyl)-4-methyl-1H-pyrazol-3-yl)-5-cyclobutyl-1H-1,2,4-triazole], the IC50 was 348 nM.

As to `CCC(C)c1nc(-c2nn(-c3ccc(Cl)cc3Cl)c(-c3ccc(Cl)cc3)c2C)n[nH]1` (stereo not drawn) [Example 622, 5-sec-butyl-3-(5-(4-chlorophenyl)-1-(2,4-dichlorophenyl)-4-methyl-1H-pyrazol-3-yl)-1H-1,2,4-triazole], the IC50 is 840 nM.

Regarding `Cc1c(-c2nc(C3CCCC3)n(C)n2)nn(-c2ccc(Cl)cc2Cl)c1-c1ccc(Cl)cc1` [Example 623, 3-(5-(4-chlorophenyl)-1-(2,4-dichlorophenyl)-4-methyl-1H-pyrazol-3-yl)-5-cyclopentyl-1-methyl-1H-1,2,4-triazole], the IC50 was determined as 368 nM.

With `Cc1c(-c2nc(C3CCCCC3)n(C)n2)nn(-c2ccc(Cl)cc2Cl)c1-c1ccc(Cl)cc1` [Example 624, 3-(5-(4-chlorophenyl)-1-(2,4-dichlorophenyl)-4-methyl-1H-pyrazol-3-yl)-5-cyclohexyl-1-methyl-1H-1,2,4-triazole], the IC50 came out at 388 nM.

In the case of `Cc1c(-c2nc(C3CC3)n(C)n2)nn(-c2ccc(Cl)cc2Cl)c1-c1ccc(Cl)cc1` [Example 628, 3-(5-(4-chlorophenyl)-1-(2,4-dichlorophenyl)-4-methyl-1H-pyrazol-3-yl)-5-cyclopropyl-1-methyl-1H-1,2,4-triazole], the IC50 was 904 nM.
